Values joined by “and” are separate entries in the source; they are usually repeats but may differ in a detail not shown here. Identical values can stand only once.
What was measured:
Aqueous solubility = type: physicochemical; details: limited evaluation to ≤ 10 μM
YFP-TOP2B = molecular target: T1, YFP-TOP2B (Homo sapiens, UniProt Q02880); experiment: FRAP analysis, YFP-TOP2B in HEK293F cells; type: cell-based; details: 0.25 and 1 μM
T1 construct: Using recombinant full-length human TOP2A and TOP2B enzymes; expressed in transfected cells; host or cells: HEK293F
Method: HEK293F cells were transfected with DNA plasmids encoding yellow-fluorescent protein (YFP)-TOP2A or YFP-TOP2B (the same DNA constructs for mammalian protein expression and purification) using Lipofectamine 2000 (Thermo Fisher Scientific). Cells were cultured for 24 h post transfection and YFP signals were confirmed prior to FRAP experiments. Transfected cells were plated on glass-bottomed culture dishes (Matsunami) and rested overnight. The next day, each dish was pre-incubated with the indicated inhibitor treatment or DMSO control for 15 min prior to FRAP experiment. Each set of experiments was repeated on at least two different days using newly transfected cells each time. Live-cell imaging was done using a LSM 980 microscope (Carl Zeiss Microscopy, LLC). YFP signal was excited at 508 nm at 2% laser power and detected through a 516–604 nm range. A small area within the nucleus (purple box) is manually selected for fluorescence bleaching at 100% laser power for 50 iterations. Inhibition of TOP2 by obex inhibitors was detected by impairment in fluorescence recovery at 15 s post bleaching, as a lack of inhibition allows for TOP2 diffusion throughout the nucleus.

TOP2B = molecular target: T2, TOP2B (Rattus norvegicus, UniProt A0A8I5Y7L4); experiment: TOP2B protein levels in NVCM (Western blotting); type: cell-based; details: for TOP2B protein level: independent replicates
T2 construct: endogenous in cells; host or cells: primary neonatal Wistar rat ventricular cardiomyocytes (NVCM)
Method: TOP2B and γH2AX levels in NVCM were determined as follows. After incubation, 4 × 10^5 rat neonatal cardiomyocytes were lysed with 75 µL of 2% SDS in 0.1 M Tris (pH 7.4) and boiled at 95 °C for 5 min. The protein content of each sample was determined by the BCA method and 10 μg of total protein were loaded onto a polyacrylamide gel (7.5% for TOP2B, 12% for γH2AX, Bio-Rad TGX stain-free gels). After approximately 75 min of electrophoresis (150 V, Bio-Rad Mini-PROTEAN Tetra Cell), the gels were transblotted onto nitrocellulose membranes using a semi-dry method in Transblot Turbo (Bio-Rad, USA). The next day, the membranes were blocked for 1 h in 5% skimmed milk powder in 0.05% TBS-T at room temperature (RT). For TOP2 analysis, membranes were incubated with rabbit anti-TOP2A/B (1:2,000, ab109524, Abcam, UK) in 1% BSA in PBS for 1 h at RT, washed 6 times for 5 min in 0.05% TBS-T and then incubated with HRP-labeled F(ab’)2 goat anti-rabbit IgG (1:10,000, ab6112, Abcam, UK) in 0.05% TBS-T for 1 h RT and washed again (6 × 5 min in 0.05% TBS-T). For γH2AX analysis, membranes were incubated with mouse anti-γH2AX (1:5,000; ab26350, Abcam, UK) in 5% BSA in PBS for 1 h at RT, washed with 0.05% PBS-T for 6 × 5 min, incubated with HRP-conjugated anti-mouse IgG (1:40,000; A9044 Sigma Aldrich, USA) in 5% BSA in PBS for 1 h RT and finally washed with 0.05% PBS-T for 6 times 5 min. Target proteins were visualized using a chemiluminescent detection substrate (Clarity Western ECL Substrate, Bio-Rad, USA) and a Gel Doc EZ with Image Lab software (Bio-Rad, USA). Full, uncropped images of all blots present in the manuscript figures are included in the source data file.
Densitometric quantification was performed using Image Lab software (Bio-Rad). Stain-free technology was used to visualize the total protein on the gel and normalize the total protein amount in each line. Each presented data point was obtained from distinct sample.

NVCM = experiment: Live-cell microscopy and mitochondrial membrane staining of NVCM; type: cell-based, rat; details: 10 µM + DAU 1.2 µM
Method: Micrographs were obtained using an Eclipse TS100 inverted epifluorescence microscope (Nikon Corporation, Tokyo, Japan) and NIS-Elements AR 2.20 software (Laboratory Imaging s.r.o., Prague, Czech Republic). After treatment and incubation time corresponding to cytotoxicity/protection experiments (3 h preincubation with topobexin (9) [10 µM], 3 h co-incubation with topobexin (9) [10 µM] + DAU [1.2 µM], 45 h drug-free medium) NVCM were stained with 0.5 μM JC-1 probe (Molecular Probes/Thermo Fisher Scientific, USA) for 30 min at 37 °C or combination of 0.2 μM MitoTracker Red CMXRos (Molecular Probes/Thermo Fisher Scientific, USA) for 30 min and Hoechst 33342 for 10 min at 37 °C and then washed with a buffer (1.2 mM MgSO4 · 7H2O, 116 mM NaCl, 5.3 mM KCl, 1.13 mM NaH2PO4 · H2O, 20 mM HEPES).

T2 sequence (A0A8I5Y7L4 1-1614): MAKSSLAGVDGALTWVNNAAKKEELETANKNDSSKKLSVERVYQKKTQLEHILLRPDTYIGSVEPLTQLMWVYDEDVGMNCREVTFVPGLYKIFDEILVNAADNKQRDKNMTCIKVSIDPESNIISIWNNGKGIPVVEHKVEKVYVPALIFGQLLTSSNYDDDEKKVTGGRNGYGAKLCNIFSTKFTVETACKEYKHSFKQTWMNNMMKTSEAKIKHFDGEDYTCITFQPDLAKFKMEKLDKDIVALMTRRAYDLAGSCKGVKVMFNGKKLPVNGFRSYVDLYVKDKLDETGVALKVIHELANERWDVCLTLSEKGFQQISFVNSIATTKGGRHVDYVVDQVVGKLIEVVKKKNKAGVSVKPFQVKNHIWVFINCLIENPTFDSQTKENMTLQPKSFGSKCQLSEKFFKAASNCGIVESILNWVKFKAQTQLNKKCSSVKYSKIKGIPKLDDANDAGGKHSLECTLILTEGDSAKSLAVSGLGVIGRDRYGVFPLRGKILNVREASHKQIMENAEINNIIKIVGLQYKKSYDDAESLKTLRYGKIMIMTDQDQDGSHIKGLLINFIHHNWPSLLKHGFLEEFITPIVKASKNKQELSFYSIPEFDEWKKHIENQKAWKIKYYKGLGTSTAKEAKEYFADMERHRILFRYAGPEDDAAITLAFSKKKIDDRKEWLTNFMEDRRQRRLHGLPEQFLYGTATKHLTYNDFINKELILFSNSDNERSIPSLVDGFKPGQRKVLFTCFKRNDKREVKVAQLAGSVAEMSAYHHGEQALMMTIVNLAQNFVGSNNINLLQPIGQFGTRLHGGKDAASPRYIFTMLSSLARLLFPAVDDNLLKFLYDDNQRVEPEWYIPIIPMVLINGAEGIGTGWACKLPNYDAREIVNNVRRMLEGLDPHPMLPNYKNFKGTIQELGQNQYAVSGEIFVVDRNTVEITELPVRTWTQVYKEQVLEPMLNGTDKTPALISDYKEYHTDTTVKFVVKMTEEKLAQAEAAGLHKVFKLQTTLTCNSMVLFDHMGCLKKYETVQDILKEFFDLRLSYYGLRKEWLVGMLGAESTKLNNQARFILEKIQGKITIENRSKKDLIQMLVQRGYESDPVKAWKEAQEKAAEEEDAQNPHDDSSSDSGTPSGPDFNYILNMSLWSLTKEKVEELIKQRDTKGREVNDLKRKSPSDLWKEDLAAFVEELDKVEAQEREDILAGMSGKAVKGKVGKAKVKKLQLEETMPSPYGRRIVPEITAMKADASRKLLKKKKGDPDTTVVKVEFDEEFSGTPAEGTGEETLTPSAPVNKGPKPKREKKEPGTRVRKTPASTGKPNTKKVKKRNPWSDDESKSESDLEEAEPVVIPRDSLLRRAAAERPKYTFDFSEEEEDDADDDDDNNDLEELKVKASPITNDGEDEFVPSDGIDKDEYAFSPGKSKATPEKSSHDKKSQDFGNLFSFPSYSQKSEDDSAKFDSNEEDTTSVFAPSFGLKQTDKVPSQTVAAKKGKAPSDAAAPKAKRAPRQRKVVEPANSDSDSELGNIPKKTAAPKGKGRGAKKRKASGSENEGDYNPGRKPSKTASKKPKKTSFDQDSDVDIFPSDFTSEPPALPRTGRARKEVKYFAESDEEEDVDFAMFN
T1 sequence (Q02880 1-1621 isoform Q02880-2): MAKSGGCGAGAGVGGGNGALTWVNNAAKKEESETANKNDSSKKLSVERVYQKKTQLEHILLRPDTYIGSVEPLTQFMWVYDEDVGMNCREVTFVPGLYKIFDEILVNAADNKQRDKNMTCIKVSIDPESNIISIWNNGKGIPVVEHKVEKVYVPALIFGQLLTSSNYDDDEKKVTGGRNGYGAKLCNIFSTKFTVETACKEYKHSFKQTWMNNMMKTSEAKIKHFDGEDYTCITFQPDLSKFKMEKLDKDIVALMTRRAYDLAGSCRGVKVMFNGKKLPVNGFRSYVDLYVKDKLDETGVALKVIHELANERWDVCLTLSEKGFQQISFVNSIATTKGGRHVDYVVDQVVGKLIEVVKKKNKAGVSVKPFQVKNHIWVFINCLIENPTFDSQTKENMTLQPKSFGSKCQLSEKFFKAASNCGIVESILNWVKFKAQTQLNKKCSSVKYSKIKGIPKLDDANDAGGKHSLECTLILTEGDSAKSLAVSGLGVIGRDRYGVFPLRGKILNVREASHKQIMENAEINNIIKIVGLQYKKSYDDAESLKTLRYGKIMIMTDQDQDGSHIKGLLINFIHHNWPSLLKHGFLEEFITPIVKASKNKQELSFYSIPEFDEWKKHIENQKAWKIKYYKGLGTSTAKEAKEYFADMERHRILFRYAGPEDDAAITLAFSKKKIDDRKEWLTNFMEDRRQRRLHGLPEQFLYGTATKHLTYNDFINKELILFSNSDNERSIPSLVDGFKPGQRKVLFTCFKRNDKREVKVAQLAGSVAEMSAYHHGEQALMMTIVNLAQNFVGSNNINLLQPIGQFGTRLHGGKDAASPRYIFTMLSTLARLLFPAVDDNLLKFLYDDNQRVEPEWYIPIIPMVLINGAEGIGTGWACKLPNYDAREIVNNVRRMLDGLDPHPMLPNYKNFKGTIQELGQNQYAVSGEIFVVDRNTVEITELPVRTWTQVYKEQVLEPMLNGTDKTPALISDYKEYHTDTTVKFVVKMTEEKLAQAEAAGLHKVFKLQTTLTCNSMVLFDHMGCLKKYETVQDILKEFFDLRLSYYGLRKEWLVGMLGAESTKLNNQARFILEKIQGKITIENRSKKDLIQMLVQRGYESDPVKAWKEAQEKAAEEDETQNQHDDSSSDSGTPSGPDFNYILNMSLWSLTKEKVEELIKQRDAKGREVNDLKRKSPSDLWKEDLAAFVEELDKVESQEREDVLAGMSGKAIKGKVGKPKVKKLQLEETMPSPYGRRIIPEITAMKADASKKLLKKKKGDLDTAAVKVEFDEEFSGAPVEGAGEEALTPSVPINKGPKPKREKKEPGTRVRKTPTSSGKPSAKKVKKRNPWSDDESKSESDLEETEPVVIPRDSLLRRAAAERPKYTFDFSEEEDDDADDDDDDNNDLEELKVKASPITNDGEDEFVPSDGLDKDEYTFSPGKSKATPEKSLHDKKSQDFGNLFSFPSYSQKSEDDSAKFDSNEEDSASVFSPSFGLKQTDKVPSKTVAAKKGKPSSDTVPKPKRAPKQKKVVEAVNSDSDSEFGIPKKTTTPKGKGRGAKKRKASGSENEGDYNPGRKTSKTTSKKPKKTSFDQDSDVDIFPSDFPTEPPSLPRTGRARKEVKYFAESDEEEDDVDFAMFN

Row | Compound | solubility in aqueous environment (Aqueous solubility) | recovery of fluorescence for TOP2B in photobleached area (YFP-TOP2B) | TOP2B protein levels in NVCM (TOP2B) | TOP2B protein level, mean (TOP2B; 0.1 µM, ctr mean 100) | TOP2B protein level (TOP2B; 0.1 µM, ctr mean 100) | TOP2B protein level, mean (TOP2B; 1 µM) | TOP2B protein level (TOP2B; 1 μM) | TOP2B protein level, mean (TOP2B; 10 µM) | TOP2B protein level (TOP2B; 10 µM) | DAU-induced changes in cardiomyocyte morphology and mitochondria (NVCM)
1 | CCCc1cc(=O)oc2c(C(=O)N3CCCc4ccccc43)c(OC)cc(OC)c12 [BNS-22] | poor solubility in aqueous environment |  |  |  |  |  |  |  |  | 
2 | CCCc1cc(=O)oc2c(C(=O)N3CCCc4ccccc43)c(OCCN3CCN(C)CC3)ccc12 [topobexin (9)] |  | impaired | potent and concentration-dependent depletion | 23.4137 | 11.507 and 22.9519 and 35.7822 | 1.8687 | 0.3883 and 3.978 and 1.24 | 0.6098 | 0.07384 and 0.9813 and 0.7742 | reduced the distinct changes in cardiomyocyte morphology induced by DAU

— paper PMC12116762, “Topobexin targets the Topoisomerase II ATPase domain for beta isoform-selective inhibition and anthracycline cardioprotection” (Nature Communications, 2025)
